Reference: the NIST ThermoML archive (doi:10.1016/j.jct.2016.03.021)
Numbers after ± are expanded uncertainties.

Assay: wn = mass fraction of the nth substance listed
Conditions: Liquid; for mass density: Vibrating tube method

CN(CCO)CCO [N-methyldiethanolamine] + O
mass density [kg/m3]
Conditions | w1 = 0.1 | w1 = 0.2002 | w1 = 0.3 | w1 = 0.4
333.15 K, 60000 kPa | – | – | – | 1035 ± 0.7
333.15 K, 70000 kPa | 1017.9 ± 0.7 | 1024.4 ± 0.7 | 1031.5 ± 0.7 | 1038.4 ± 0.7
333.15 K, 80000 kPa | 1021.6 ± 0.7 | 1027.9 ± 0.7 | 1034.9 ± 0.7 | 1041.6 ± 0.7
333.15 K, 90000 kPa | 1025.1 ± 0.7 | 1031.3 ± 0.7 | 1038.1 ± 0.7 | 1044.9 ± 0.7
333.15 K, 100000 kPa | 1028.5 ± 0.7 | 1034.7 ± 0.7 | 1041.6 ± 0.7 | 1048.2 ± 0.7
333.15 K, 110000 kPa | 1031.9 ± 0.7 | 1038 ± 0.7 | 1044.6 ± 0.7 | 1051.3 ± 0.7
333.15 K, 120000 kPa | 1035.4 ± 0.7 | 1041.4 ± 0.7 | 1047.9 ± 0.7 | 1054.5 ± 0.8
333.15 K, 130000 kPa | 1038.7 ± 0.7 | 1044.5 ± 0.7 | 1051 ± 0.8 | 1057.5 ± 0.8
333.15 K, 140000 kPa | 1042 ± 0.7 | 1047.7 ± 0.8 | 1054.2 ± 0.8 | 1060.6 ± 0.8
353.15 K, 100 kPa | 978.6 ± 0.7 | 985.3 ± 0.7 | 992 ± 0.7 | 998.1 ± 0.7
353.15 K, 500 kPa | 978.7 ± 0.7 | 985.3 ± 0.7 | 992 ± 0.7 | 998.2 ± 0.7
353.15 K, 1000 kPa | 978.9 ± 0.7 | 985.5 ± 0.7 | 992.2 ± 0.7 | 998.4 ± 0.7
353.15 K, 2000 kPa | 979.3 ± 0.7 | 985.9 ± 0.7 | 992.7 ± 0.7 | 998.8 ± 0.7
353.15 K, 5000 kPa | 980.6 ± 0.7 | 987.2 ± 0.7 | 993.9 ± 0.7 | 1000.1 ± 0.7
353.15 K, 10000 kPa | 982.8 ± 0.7 | 989.4 ± 0.7 | 996.1 ± 0.7 | 1002.3 ± 0.7
353.15 K, 15000 kPa | 984.9 ± 0.7 | 991.5 ± 0.7 | 998.2 ± 0.7 | 1004.4 ± 0.7
353.15 K, 20000 kPa | 987 ± 0.7 | 993.5 ± 0.7 | 1000.3 ± 0.7 | 1006.5 ± 0.7
353.15 K, 30000 kPa | 991.2 ± 0.7 | 997.6 ± 0.7 | 1004.3 ± 0.7 | 1010.5 ± 0.7
353.15 K, 40000 kPa | 995.2 ± 0.7 | 1001.6 ± 0.7 | 1008.1 ± 0.7 | 1014.4 ± 0.7
353.15 K, 50000 kPa | 999.1 ± 0.7 | 1005.5 ± 0.7 | 1012 ± 0.7 | 1018.2 ± 0.7
353.15 K, 60000 kPa | 1003.1 ± 0.7 | 1009.3 ± 0.7 | 1015.9 ± 0.7 | 1022 ± 0.7
353.15 K, 70000 kPa | 1006.9 ± 0.7 | 1012.9 ± 0.7 | 1019.5 ± 0.7 | 1025.6 ± 0.7
353.15 K, 80000 kPa | 1010.5 ± 0.7 | 1016.6 ± 0.7 | 1023 ± 0.7 | 1029.1 ± 0.7
353.15 K, 90000 kPa | 1014 ± 0.7 | 1020 ± 0.7 | 1026.4 ± 0.7 | 1032.6 ± 0.7
353.15 K, 100000 kPa | 1017.7 ± 0.7 | 1023.6 ± 0.7 | 1029.9 ± 0.7 | 1036 ± 0.7
353.15 K, 110000 kPa | 1021.2 ± 0.7 | 1027 ± 0.7 | 1033.3 ± 0.7 | 1039.3 ± 0.7
353.15 K, 120000 kPa | 1024.6 ± 0.7 | 1030.4 ± 0.7 | 1036.6 ± 0.7 | 1042.5 ± 0.7
353.15 K, 130000 kPa | 1028 ± 0.7 | 1033.6 ± 0.7 | 1039.8 ± 0.7 | 1045.8 ± 0.7
353.15 K, 140000 kPa | 1031.2 ± 0.7 | 1036.8 ± 0.7 | 1042.9 ± 0.7 | 1048.9 ± 0.8
373.15 K, 100 kPa | 964.4 ± 0.7 | 970.5 ± 0.7 | 976.5 ± 0.7 | 981.9 ± 0.7
373.15 K, 500 kPa | 964.6 ± 0.7 | 970.7 ± 0.7 | 976.6 ± 0.7 | 982.1 ± 0.7
373.15 K, 1000 kPa | 964.9 ± 0.7 | 970.9 ± 0.7 | 976.9 ± 0.7 | 982.4 ± 0.7
373.15 K, 2000 kPa | 965.3 ± 0.7 | 971.4 ± 0.7 | 977.4 ± 0.7 | 982.8 ± 0.7
373.15 K, 5000 kPa | 966.7 ± 0.7 | 972.8 ± 0.7 | 978.7 ± 0.7 | 984.2 ± 0.7
373.15 K, 10000 kPa | 969 ± 0.7 | 975 ± 0.7 | 981.1 ± 0.7 | 986.5 ± 0.7
373.15 K, 15000 kPa | 971.2 ± 0.7 | 977.2 ± 0.7 | 983.4 ± 0.7 | 988.8 ± 0.7
373.15 K, 20000 kPa | 973.5 ± 0.7 | 979.5 ± 0.7 | 985.6 ± 0.7 | 991.1 ± 0.7
373.15 K, 30000 kPa | 977.9 ± 0.7 | 983.9 ± 0.7 | 989.8 ± 0.7 | 995.5 ± 0.7
373.15 K, 40000 kPa | 982.1 ± 0.7 | 988.2 ± 0.7 | 994.1 ± 0.7 | 999.8 ± 0.7
373.15 K, 50000 kPa | 986.2 ± 0.7 | 992.1 ± 0.7 | 998.1 ± 0.7 | 1003.7 ± 0.7
373.15 K, 60000 kPa | 990.1 ± 0.7 | 996.1 ± 0.7 | 1002.1 ± 0.7 | 1007.7 ± 0.7
373.15 K, 70000 kPa | 994.2 ± 0.7 | 1000 ± 0.7 | 1005.9 ± 0.7 | 1011.6 ± 0.7
373.15 K, 80000 kPa | 998.1 ± 0.7 | 1003.8 ± 0.7 | 1009.8 ± 0.7 | 1015.4 ± 0.7
373.15 K, 90000 kPa | 1001.8 ± 0.7 | 1007.4 ± 0.7 | 1013.3 ± 0.7 | 1019 ± 0.7
373.15 K, 100000 kPa | 1005.3 ± 0.7 | 1011.1 ± 0.7 | 1017 ± 0.7 | 1022.6 ± 0.7
373.15 K, 110000 kPa | 1009 ± 0.7 | 1014.7 ± 0.7 | 1020.5 ± 0.7 | 1026.2 ± 0.7
373.15 K, 120000 kPa | 1012.6 ± 0.7 | 1018.3 ± 0.7 | 1024 ± 0.7 | 1029.7 ± 0.7
373.15 K, 130000 kPa | 1016 ± 0.7 | 1021.5 ± 0.7 | 1027.4 ± 0.7 | 1033 ± 0.7
373.15 K, 140000 kPa | 1019.4 ± 0.7 | 1025 ± 0.7 | 1030.7 ± 0.7 | 1036.3 ± 0.7
393.15 K, 100 kPa | 948.6 ± 0.7 | 954 ± 0.7 | 959.6 ± 0.7 | 964.2 ± 0.7
393.15 K, 500 kPa | 949 ± 0.7 | 954.4 ± 0.7 | 959.9 ± 0.7 | 964.7 ± 0.7
393.15 K, 1000 kPa | 949.2 ± 0.7 | 954.6 ± 0.7 | 960.1 ± 0.7 | 964.8 ± 0.7
393.15 K, 2000 kPa | 949.6 ± 0.7 | 955.2 ± 0.7 | 960.6 ± 0.7 | 965.4 ± 0.7
393.15 K, 5000 kPa | 951.1 ± 0.7 | 956.7 ± 0.7 | 962.1 ± 0.7 | 966.9 ± 0.7
393.15 K, 10000 kPa | 953.6 ± 0.7 | 959.2 ± 0.7 | 964.7 ± 0.7 | 969.5 ± 0.7
393.15 K, 15000 kPa | 956 ± 0.7 | 961.6 ± 0.7 | 967.1 ± 0.7 | 972 ± 0.7
393.15 K, 20000 kPa | 958.5 ± 0.7 | 964 ± 0.7 | 969.6 ± 0.7 | 974.5 ± 0.7
393.15 K, 30000 kPa | 963 ± 0.7 | 968.5 ± 0.7 | 974.2 ± 0.7 | 979.2 ± 0.7
393.15 K, 40000 kPa | 967.6 ± 0.7 | 973.1 ± 0.7 | 978.7 ± 0.7 | 983.9 ± 0.7
393.15 K, 50000 kPa | 971.8 ± 0.7 | 977.3 ± 0.7 | 983 ± 0.7 | 988.1 ± 0.7
393.15 K, 60000 kPa | 976.2 ± 0.7 | 981.7 ± 0.7 | 987.4 ± 0.7 | 992.5 ± 0.7
393.15 K, 70000 kPa | 980.4 ± 0.7 | 985.9 ± 0.7 | 991.6 ± 0.7 | 996.8 ± 0.7
393.15 K, 80000 kPa | 984.3 ± 0.7 | 989.8 ± 0.7 | 995.4 ± 0.7 | 1000.8 ± 0.7
393.15 K, 90000 kPa | 988.3 ± 0.7 | 993.7 ± 0.7 | 999.4 ± 0.7 | 1004.6 ± 0.7
393.15 K, 100000 kPa | 992.1 ± 0.7 | 997.5 ± 0.7 | 1003.1 ± 0.7 | 1008.5 ± 0.7
393.15 K, 110000 kPa | 995.9 ± 0.7 | 1001.4 ± 0.7 | 1006.9 ± 0.7 | 1012.3 ± 0.7
393.15 K, 120000 kPa | 999.6 ± 0.7 | 1005 ± 0.7 | 1010.6 ± 0.7 | 1015.9 ± 0.7
393.15 K, 130000 kPa | 1003.1 ± 0.7 | 1008.5 ± 0.7 | 1014.1 ± 0.7 | 1019.4 ± 0.7
393.15 K, 140000 kPa | 1006.7 ± 0.7 | 1012 ± 0.7 | 1017.6 ± 0.7 | 1023 ± 0.7

viscosity [mPa·s]
Conditions | w1 = 0.1 | w1 = 0.2 | w1 = 0.2002 | w1 = 0.3 | w1 = 0.4
333.15 K, 80000 kPa, Falling or rolling sphere viscometry | 0.661 ± 0.02 | – | 0.942 ± 0.029 | 1.4 ± 0.043 | 2.134 ± 0.066
333.15 K, 100000 kPa, Falling or rolling sphere viscometry | 0.672 ± 0.021 | – | 0.967 ± 0.03 | 1.435 ± 0.044 | 2.206 ± 0.068
333.15 K, 120000 kPa, Falling or rolling sphere viscometry | 0.68 ± 0.021 | – | 0.982 ± 0.03 | 1.468 ± 0.045 | 2.28 ± 0.07
353.15 K, 93 kPa, Concentric cylinders viscometry | – | 0.6205 ± 0.013 | – | 0.8505 ± 0.018 | 1.186 ± 0.025
353.15 K, 100 kPa, Falling or rolling sphere viscometry | – | 0.617 ± 0.019 | 0.617 ± 0.019 | 0.854 ± 0.026 | 1.181 ± 0.036
353.15 K, 5000 kPa, Falling or rolling sphere viscometry | – | – | 0.62 ± 0.019 | 0.862 ± 0.027 | 1.193 ± 0.037
353.15 K, 10000 kPa, Falling or rolling sphere viscometry | – | – | 0.625 ± 0.019 | 0.869 ± 0.027 | 1.204 ± 0.037
353.15 K, 20000 kPa, Falling or rolling sphere viscometry | – | – | 0.633 ± 0.02 | 0.881 ± 0.027 | 1.229 ± 0.038
353.15 K, 30000 kPa, Falling or rolling sphere viscometry | – | – | 0.64 ± 0.02 | 0.894 ± 0.028 | 1.253 ± 0.039
353.15 K, 40000 kPa, Falling or rolling sphere viscometry | – | – | 0.647 ± 0.02 | 0.907 ± 0.028 | 1.276 ± 0.039
353.15 K, 60000 kPa, Falling or rolling sphere viscometry | – | – | 0.661 ± 0.02 | 0.932 ± 0.029 | 1.322 ± 0.041
353.15 K, 80000 kPa, Falling or rolling sphere viscometry | – | – | 0.675 ± 0.021 | 0.959 ± 0.03 | 1.368 ± 0.042
353.15 K, 100000 kPa, Falling or rolling sphere viscometry | – | – | 0.691 ± 0.021 | 0.997 ± 0.031 | 1.419 ± 0.044
353.15 K, 120000 kPa, Falling or rolling sphere viscometry | – | – | 0.705 ± 0.022 | 1.018 ± 0.031 | 1.467 ± 0.045
